# Source: patent US20110166112A1, “METHOD FOR STIMULATING PLATELET PRODUCTION” (Eisai, Inc., priority 2009, published 2011)
# “And” between values parts separate entries of the source, which are not always exact repeats. Identical values can stand only once.
# Test system: subjects with chronic idiopathic thrombocytopenic purpura (ITP)
# Assay: Phase 2 double-blind placebo-controlled dose-ranging 28-day study of E5501 tablets: platelet count response (responder rate)
# Assay type: in vivo, human
# Details: for subjects with sustained platelet increases that met the criteria for positive response: 28 days
# Protocol: This was a phase 2, multi-center, double-blind, randomized, placebo-controlled, dose-ranging, parallel group study of E5501 tablets, used in the treatment of subjects with chronic idiopathic thrombocytopenic purpura (ITP) refractory to or relapsed after at least one prior ITP therapy. Subjects who met all entry criteria were randomly assigned in a 3:3:3:3:1 ratio to one of the following five treatment groups dosed daily for 28 days: 1) E5501 2.5 mg; 2) E5501 5 mg; 3) E5501 10 mg; 4) E5501 20 mg; or 5) placebo (PBO). Each E5501 dosing group consisted of 15 subjects while the PBO group consisted of 5 subjects. All study subjects were evaluated weekly (days 7, 14, 21 and 28) for safety and efficacy while receiving study treatment, with a final assessment for safety and effectiveness performed 4 weeks after the last study dose (day 56) unless the subject entered the follow-on study. Platelet counts were also measured on day 3 and day 5.
# The primary objective of this study was to assess platelet count response to E5501 on day 28. The response rate was defined as the proportion of subjects who were not on steroids with a screening visit B platelet count <30,000/mm^3 and who achieved a platelet count ≧50,000/mm^3, together with the proportion of subjects receiving steroids with a screening visit B platelet count ≧30,000/mm^3 but <50,000/mm^3 who achieved a platelet count ≧20,000/mm^3 above their screening visit B platelet count. Secondary objectives of the study included the evaluation of other markers of effectiveness, including changes in peripheral blood platelet count, the proportion of subjects who achieved a platelet count ≧50,000/mm^3 and ≧100,000/mm^3, and the proportion of subjects who achieved a doubling of their platelet count at screening visit B and the assessment of the safety and tolerability of E5501.
# Primary efficacy endpoint. The primary endpoint in this study was E5501 responder rate on day 28. A responder is defined as a subject with screening visit B platelet count <30,000/mm^3 who achieves a platelet count ≧50,000/mm^3 or a subject receiving steroids with a screening visit B platelet count ≧30,000/mm^3 but <50,000/mm^3 who achieves a platelet count ≧20,000/mm^3 above their screening visit B platelet count.
# The secondary endpoints included changes from screening visit B in peripheral blood platelet counts over time; the proportion of subjects who achieved a platelet count of ≧50,000/mm^3 or ≧100,000/mm^3 on day 28 and the proportion of subjects whose platelet count doubled compared to their platelet count at Screening Visit B.
# The populations of interest were defined as follows: • The randomized population included all subjects who were randomized into the study. • The safety population included all randomized subjects who receive at least one dose of study drug and have at least one safety assessment. • The pharmacokinetic (PK) population included all subjects who provided blood sample for analysis of E5501. A subject was included in this population if the subject had at least one blood draw for PK assessment. • The full analysis set (FAS) included all subjects who provided adequate data to derive at least one efficacy assessment. […] The day 28 visit window was defined to be from day 25, to last dose day+1, inclusively; • Other major protocol violations that impacted the platelet endpoint evaluation. Results from Planned Analyses
# Primary Efficacy Endpoint. The analysis of efficacy was performed both on the FAS population and the PP population at day 28 visit with LOCF and observed case (OC) approaches. The primary analysis population was the FAS. Fisher's exact test was used to examine the difference of response rates among each treatment pair. All p-values are nominal without adjustment for multiplicity.
# Secondary Efficacy Endpoint. Analyses for secondary efficacy endpoints were performed by treatment group and by analysis visit using both LOCF and OC methods. […]
# [1] = Day 3, FAS, Observed Case, 2.5 mg
# [2] = Day 3, FAS, Observed Case, 5 mg
# [3] = Day 3, FAS, Observed Case, 10 mg
# [4] = Day 3, FAS, Observed Case, 20 mg
# [5] = Day 3, FAS, Observed Case, Total E5501
# [6] = Day 5, FAS, Observed Case, 2.5 mg
# [7] = Day 5, FAS, Observed Case, 5 mg
# [8] = Day 5, FAS, Observed Case, 10 mg
# [9] = Day 5, FAS, Observed Case, 20 mg
# [10] = Day 5, FAS, Observed Case, Total E5501
# [11] = Day 28, Baseline Platelet Cnt. >15K/mm^3, 2.5 mg
# [12] = Day 28, Baseline Platelet Cnt. >15K/mm^3, 5 mg
# [13] = Day 28, Baseline Platelet Cnt. >15K/mm^3, 10 mg
# [14] = Day 28, Baseline Platelet Cnt. >15K/mm^3, 20 mg
# [15] = Day 28, Baseline Platelet Cnt. >15K/mm^3, Total E5501
# [16] = Day 28, Baseline Platelet Cnt. ≦15K/mm^3, 2.5 mg
# [17] = Day 28, Baseline Platelet Cnt. ≦15K/mm^3, 5 mg
# [18] = Day 28, Baseline Platelet Cnt. ≦15K/mm^3, 10 mg
# [19] = Day 28, Baseline Platelet Cnt. ≦15K/mm^3, 20 mg
# [20] = Day 28, Baseline Platelet Cnt. ≦15K/mm^3, Total E5501
# [21] = Day 28, Full Analysis Population, LOCF, 2.5 mg
# [22] = Day 28, Full Analysis Population, LOCF, 5 mg
# [23] = Day 28, Full Analysis Population, LOCF, 10 mg
# [24] = Day 28, Full Analysis Population, LOCF, 20 mg
# [25] = Day 28, Full Analysis Population, LOCF, Total E5501
# [26] = Day 28, No Previous History of Splenectomy, 2.5 mg
# [27] = Day 28, No Previous History of Splenectomy, 5 mg
smiles,measurement,setting,value
"O=C(Nc1nc(-c2cc(Cl)cs2)c(N2CCN(C3CCCCC3)CC2)s1)c1cnc(N2CCC(C(=O)O)CC2)c(Cl)c1 [E5501, 1-(3-chloro-5-{[4-(4-chlorothiophen-2-yl)-5-(4-cyclohexylpiperazin-1-yl)thiazol-2-yl]carbamoyl}pyridine-2-yl)piperidine-4-carboxylic acid]",subjects refractory to splenectomy who responded,20 mg,66.7%
same,reduction in the response rate from day 7 to 28 days,20 mg dose group,about 15%
same,platelet counts from baseline (FIG. 1),"28 day study period, 2.5-20 mg",markedly increased platelet counts from baseline
same,subjects with sustained platelet increases that met the criteria for positive response,5 mg,28.6%
same,subjects with sustained platelet increases that met the criteria for positive response,10 mg,41.7%
same,subjects with sustained platelet increases that met the criteria for positive response,20 mg,76.9% and ~80%
same,"Responder, No",[1],4 (100.0) n (%)
same,"Responder, Yes",[1],0 n (%)
same,"Responder, No",[2],3 (100.0) n (%)
same,"Responder, Yes",[2],0 n (%)
same,"Responder, No",[3],2 (100.0) n (%)
same,"Responder, Yes",[3],0 n (%)
same,"Responder, No",[4],3 (75.0) n (%)
same,"Responder, Yes",[4],1 (25.0) n (%)
same,"Responder, No",[5],12 (92.3) n (%)
same,"Responder, Yes",[5],1 (7.7) n (%)
same,"Responder, No",[6],4 (100.0) n (%)
same,"Responder, Yes",[6],0 n (%)
same,"Responder, No",[7],2 (33.3) n (%)
same,"Responder, Yes",[7],4 (66.7) n (%)
same,"Responder, No",[8],3 (75.0) n (%)
same,"Responder, Yes",[8],1 (25.0) n (%)
same,"Responder, No",[9],4 (80.0) n (%)
same,"Responder, Yes",[9],1 (20.0) n (%)
same,"Responder, No",[10],13 (68.4) n (%)
same,"Responder, Yes",[10],6 (31.6) n (%)
same,Nonresponder,"Day 7, FAS, LOCF, 2.5 mg",14 (93.3) n (%)
same,Responder,"Day 7, FAS, LOCF, 2.5 mg",1 (6.7) n (%)
same,Nonresponder,"Day 7, FAS, LOCF, 5 mg",5 (33.3) n (%)
same,Responder,"Day 7, FAS, LOCF, 5 mg",10 (66.7) n (%)
same,Nonresponder,"Day 7, FAS, LOCF, 10 mg",5 (35.7) n (%)
same,Responder,"Day 7, FAS, LOCF, 10 mg",9 (64.3) n (%)
same,Nonresponder,"Day 7, FAS, LOCF, 20 mg",1 (6.7) n (%)
same,Responder,"Day 7, FAS, LOCF, 20 mg",14 (93.3) n (%)
same,Nonresponder,"Day 7, FAS, LOCF, Total E5501",25 (42.4) n (%)
same,Responder,"Day 7, FAS, LOCF, Total E5501",34 (57.6) n (%)
same,Nonresponder,"Day 14, FAS, LOCF, 2.5 mg",12 (80.0) n (%)
same,Responder,"Day 14, FAS, LOCF, 2.5 mg",3 (20.0) n (%)
same,Nonresponder,"Day 14, FAS, LOCF, 5 mg",6 (40.0) n (%)
same,Responder,"Day 14, FAS, LOCF, 5 mg",9 (60.0) n (%)
same,Nonresponder,"Day 14, FAS, LOCF, 10 mg",3 (21.4) n (%)
same,Responder,"Day 14, FAS, LOCF, 10 mg",11 (78.6) n (%)
same,Nonresponder,"Day 14, FAS, LOCF, 20 mg",1 (6.7) n (%)
same,Responder,"Day 14, FAS, LOCF, 20 mg",14 (93.3) n (%)
same,Nonresponder,"Day 14, FAS, LOCF, Total E5501",22 (37.3) n (%)
same,Responder,"Day 14, FAS, LOCF, Total E5501",37 (62.7) n (%)
same,Nonresponder,"Day 21, FAS, LOCF, 2.5 mg",13 (86.7) n (%)
same,Responder,"Day 21, FAS, LOCF, 2.5 mg",2 (13.3) n (%)
same,Nonresponder,"Day 21, FAS, LOCF, 5 mg",6 (40.0) n (%)
same,Responder,"Day 21, FAS, LOCF, 5 mg",9 (60.0) n (%)
same,Nonresponder,"Day 21, FAS, LOCF, 10 mg",7 (50.0) n (%)
same,Responder,"Day 21, FAS, LOCF, 10 mg",7 (50.0) n (%)
same,Nonresponder,"Day 21, FAS, LOCF, 20 mg",2 (13.3) n (%)
same,Responder,"Day 21, FAS, LOCF, 20 mg",13 (86.7) n (%)
same,Nonresponder,"Day 21, FAS, LOCF, Total E5501",28 (47.5) n (%)
same,Responder,"Day 21, FAS, LOCF, Total E5501",31 (52.5) n (%)
same,"Responder, No",[11],8 (80.0) n (%)
same,"Responder, Yes",[11],2 (20.0) n (%)
same,"Responder, No",[12],6 (46.2) n (%)
same,"Responder, Yes",[12],7 (53.8) n (%)
same,"Responder, No",[13],4 (44.4) n (%)
same,"Responder, Yes",[13],5 (55.6) n (%)
same,"Responder, No",[14],2 (18.2) n (%)
same,"Responder, Yes",[14],9 (81.8) n (%)
same,"Responder, No",[15],20 (46.5) n (%)
same,"Responder, Yes",[15],23 (53.5) n (%)
same,"Responder, No",[16],5 (100.0) n (%)
same,"Responder, Yes",[16],0 n (%)
same,"Responder, No",[17],1 (50.0) n (%)
same,"Responder, Yes",[17],1 (50.0) n (%)
same,"Responder, No",[18],3 (60.0) n (%)
same,"Responder, Yes",[18],2 (40.0) n (%)
same,"Responder, No",[19],1 (25.0) n (%)
same,"Responder, Yes",[19],3 (75.0) n (%)
same,"Responder, No",[20],10 (62.5) n (%)
same,"Responder, Yes",[20],6 (37.5) n (%)
same,"Responder, No",[21],13 (86.7) n (%)
same,"Responder, Yes",[21],2 (13.3) n (%)
same,"Responder, No",[22],7 (46.7) n (%)
same,"Responder, Yes",[22],8 (53.3) n (%)
same,"Responder, No",[23],7 (50.0) n (%)
same,"Responder, Yes",[23],7 (50.0) n (%)
same,"Responder, No",[24],3 (20.0) n (%)
same,"Responder, Yes",[24],12 (80.0) n (%)
same,"Responder, No",[25],30 (50.8) n (%)
same,"Responder, Yes",[25],29 (49.2) n (%)
same,"Responder, No",[26],9 (90.0) n (%)
same,"Responder, Yes",[26],1 (10.0) n (%)
same,"Responder, No",[27],5 (45.5) n (%)
same,"Responder, Yes",[27],6 (54.5) n (%)
same,"Responder, No","Day 28, No Previous History of Splenectomy, 10 mg",5 (45.5) n (%)
